Data taken from patent publication US20130029981A1, “COMPOUNDS, COMPOSITIONS, AND METHODS FOR CONTROLLING BIOFILMS” (Katholieke Universiteit Leuven, priority 2009, published 2013).
Read-outs that look alike come from different tables or passages of the source.

Test system: S. Typhimurium ATCC14028
Experiment: Static peg assay for prevention of biofilm formation (Calgary device, crystal violet)
Assay type: cell-based, Salmonella Typhimurium
Protocol: (§1) Evaluation of the biofilm inhibitory activity of some substituted 2-amino-1H-imidazoles of the invention was carried out by growing up biofilms of S. Typhimurium ATCC14028 or SL1344 or Pseudomonas aeruginosa PA14 in the presence of different concentrations (1/2 dilution series) of biofilm inhibitors, by using the Calgary biofilm device. After an incubation period of 24 hours at 25° C. or 37° C. or 48 hours at 16° C. the biofilms were visualized by crystal violet staining. In the next step the stain was extracted from the biofilm with 30% acetic acid. The absorbance of the resolubilized stain at 570 nm is a measure of the amount of biofilm formed.
In examples 2 and 3, the following materials and methods were used.
The device used for biofilm formation is a platform carrying 96 polystyrene pegs (Nunc no. 445497) that fits as a microtiter plate lid with a peg hanging into each microtiter plate well (Nunc no. 269789). Biofilm formation assays were carried out at 16° C., 25° C. and 37° C.
For biofilm assays at 16° C. and 25° C., two-fold serial dilutions of the compounds in 100 μl liquid TSB 1/20 broth per well were prepared in the microtiter plate. Subsequently, an overnight culture of S. Typhimurium ATCC14028 or SL1344 (grown up in LB medium) was diluted 1:100 into TSB 1/20 broth and 100 μl (ca. 10^6 cells) was added to each well of the microtiter plates, resulting in a total amount of 200 μl medium per well. The pegged lid was placed on the microtiter plate and the plate was incubated for 48 hours at 16° C. or for 24 hours at 25° C. without shaking. During this incubation period biofilms were formed on the surface of the pegs. In case of the assay at 16° C., after 24 hours the lid was transferred into a new plate with medium and the specific molecules used for testing. […] For quantification of biofilm formation, the pegs were washed once in 200 μl phosphate buffered saline (PBS). The remaining attached bacteria were stained for 30 minutes with 200 μl 0.1% (w/v) crystal violet in an isopropanol/methanol/PBS solution (v/v 1:1:18). Excess stain was rinsed off by placing the pegs in a 96-well plate filled with 200 μl distilled water per well. After the pegs were air dried (30 min), the dye bound to the adherent cells was extracted with 30% glacial acetic acid (200 μl). The OD570 of each well was measured using the VERSAmax microtiter plate reader. The IC50 value for each compound was determined from concentration gradients in two or three independent experiments (with 2 or 3 repeats per experiment), by using the GraphPad software of Prism.
For biofilm assays at 37° C., two-fold serial dilutions of the compounds in 50 μl liquid CFA broth per well were prepared in the microtiter plate. Subsequently, an overnight culture of S. Typhimurium ATCC 14028 was diluted 1:100 into CFA broth and 100 μl (ca. 10^6 cells) was added to each well of the microtiter plates, resulting in a total amount of 150 μl medium per well. The pegged lid was placed on the microtiter plate and the plate was incubated for 24 hours at 37° C. without shaking. During incubation the plates were placed in a humidity controlled container to prevent evaporation of the growth medium. Quantification of biofilm formation was performed similarly as described above for the assays at 16° C. and 25° C.
as §1, with “imidazo[1,2-a]pyrimidinium bromide salts” for “2-amino-1H-imidazoles”

[1] = 25° C., 24 hours, Table 15, read-out: (1) IC50 (biofilm inhibition)
[2] = 25° C., Table 16, read-out: S. Typhimurium IC50 (biofilm formation)
[3] = Salmonella enterica, 25° C., 24 hours, Table 15, read-out: (1) IC50 (biofilm inhibition)
[4] = 25° C., Table 11, read-out: IC50 (biofilm formation)
[5] = 25° C., Table 14, read-out: IC50 biofilm inhibition
[6] = 25° C., Table 19, read-out: IC50 (biofilm formation)
[7] = S. Typhimurium ATCC 14028, 25° C., read-out: S. Typhimurium IC50 (biofilm formation)

CCCCCCCCCCN1c2nccc[n+]2CC1(O)c1ccc(-c2ccc(-c3ccc([N+](=O)[O-])cc3)cc2)cc1 (racemic)
IC50 [1]: 525 µM

CN1c2nccc[n+]2CC1(O)c1ccc(Cl)cc1 (racemic) [Compound 15]
IC50 [2]: 225 µM

CN1c2nccc[n+]2CC1(O)c1ccc([N+](=O)[O-])cc1 (racemic) [Compound 28]
IC50 [2]: 698 µM

CCCCCCCCCCN1c2nccc[n+]2CC1(O)c1cccc2ccccc12 (stereo not shown) [1-decyl-2-hydroxy-2-(1-naphthalenyl)-2,3-dihydro-1H-imidazo[1,2-a]pyrimidin-4-ium bromide]
IC50 [3]: 68.9 µM

CCCCCCCCCCN1c2nccc[n+]2CC1(O)c1cccc(Br)c1 (stereo not shown) [1-decyl-2-hydroxy-2-(3-bromophenyl)-2,3-dihydro-1H-imidazo[1,2-a]pyrimidin-4-ium bromide]
IC50 [3]: 33.8 µM

CCCCCCCCCCN1c2nccc[n+]2CC1(O)c1ccc(S(C)(=O)=O)cc1 (stereo not shown) [1-decyl-2-hydroxy-2-(4-methylsulfonylphenyl)-2,3-dihydro-1H-imidazo[1,2-a]pyrimidin-4-ium bromide]
IC50 [3]: 21.9 µM

CCCCCCCCCCN1c2nccc[n+]2CC1(O)c1ccc(SC)cc1 (stereo not shown) [1-decyl-2-hydroxy-2-(4-methylthiophenyl)-2,3-dihydro-1H-imidazo[1,2-a]-pyrimidin-4-ium bromide]
IC50 [3]: 45.7 µM

CCCCCCCCCCN1c2nccc[n+]2CC1(O)c1ccc(-c2ccc([N+](=O)[O-])cc2)cc1 (stereo not shown) [1-decyl-2-hydroxy-2-(4′-nitro[1,1′-biphenylyl]-4-yl)-2,3-dihydro-1H-imidazo[1,2-a]pyrimidin-4-ium bromide]
IC50 [1]: 200 µM

CCCCCCCC[n+]1c(-c2ccc(-c3ccc(-c4ccccc4)cc3)cc2)cn2cccnc21.[O-][Cl+3]([O-])([O-])[O-] [1-octyl-2-([1,1′:4′,1″-terphenyl]-4-yl)-imidazo[1,2-a]pyrimidin-1-ium perchlorate]
IC50 (Salmonella enterica, 24 h, read-out: (1) IC50 (biofilm inhibition)): 5.03 µM

CN1c2nccc[n+]2CC1(O)c1ccc(F)cc1 (stereo not shown) [Compound 37]
IC50 [2]: > 800 µM

CCCCN1c2nccc[n+]2CC1(O)c1ccc(F)cc1 (stereo not shown) [Compound 38]
IC50 [4]: 175 µM
IC50 [5]: 175 µM
IC50 [2]: 163 µM

CCCCCCCCCCN1c2nccc[n+]2CC1(O)c1ccc(F)cc1 (stereo not shown) [Compound 40]
IC50 [1]: 20 µM
IC50 [2]: 20 µM

CCCCN1c2nccc[n+]2CC1(O)c1ccc(Br)cc1 (stereo not shown) [Compound 41]
IC50 [4]: 64.9 µM
IC50 [5]: 64.9 µM
IC50 [2]: 90.1 µM

CC(C)CN1c2nccc[n+]2CC1(O)c1ccc(Br)cc1 (stereo not shown) [Compound 42]
IC50 [2]: 5.2 µM

CCCCCN1c2nccc[n+]2CC1(O)c1ccc(Br)cc1 (stereo not shown) [Compound 43]
IC50 [2]: 1.7 µM

CN1c2nccc[n+]2CC1(O)c1cccc([N+](=O)[O-])c1 (stereo not shown) [Compound 44]
IC50 [2]: 564 µM

CCCCN1c2nccc[n+]2CC1(O)c1ccc(OC)cc1 (stereo not shown) [Compound 45]
IC50 [2]: 314 µM

CCCCCCCCCCN1c2nccc[n+]2CC1(O)c1ccc(OC)cc1 (stereo not shown) [Compound 47]
IC50 [1]: 18.6 µM
IC50 [2]: 18.6 µM

CC(C)CN1c2nccc[n+]2CC1(O)c1ccc(Cl)c(Cl)c1 (stereo not shown) [Compound 48]
IC50 [2]: 8 µM

CCCCCCCCCCN1c2nccc[n+]2CC1(O)c1ccc(Cl)c(Cl)c1 (stereo not shown) [Compound 50]
IC50 [1]: 32.4 µM
IC50 [2]: 32.4 µM

O=[N+]([O-])c1ccc(C2(O)C[n+]3cccnc3N2C2CC2)cc1 (stereo not shown) [Compound 68]
IC50 (25° C., Table 18, read-out: S. Typhimurium IC50 (biofilm formation)): 125 µM

O=[N+]([O-])c1ccc(C2(O)C[n+]3cccnc3N2Cc2ccccc2)cc1 (stereo not shown) [Compound 72]
IC50 [4]: 222 µM
IC50 [5]: 222 µM
IC50 [6]: 174 µM

COc1ccc(CN2c3nccc[n+]3CC2(O)c2ccc(Br)cc2)cc1 (stereo not shown) [Compound 74]
IC50 [4]: 105 µM
IC50 [5]: 105 µM
IC50 [6]: 110 µM

COc1cccc(CCN2c3nccc[n+]3CC2(O)c2ccc([N+](=O)[O-])cc2)c1 (stereo not shown) [Compound 75]
IC50 [4]: 124 µM
IC50 [5]: 124 µM
IC50 [6]: 124 µM

COc1cccc(CCN2c3nccc[n+]3CC2(O)c2ccc(F)cc2)c1 (stereo not shown) [Compound 76]
IC50 [6]: 105 µM

CCCCCCCCCNc1nc(-c2ccc(Cl)cc2)c[nH]1 [Compound 89]
IC50 [7]: > 800 µM

CNc1ncc(-c2ccc(F)c(F)c2)[nH]1 [Compound 112]
IC50 [7]: 602 µM
